Test results taken from the supplement of paper PMC10883282.

How the values were obtained:
Assay in all cases: relative viability vs DMSO control (72 h) (fraction); higher = more viable cells
RD-ES = tested on: RD-ES
Outline: (§1)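 Sarcoma cell lines were plated in 384 wells to reach 80–90% confluence, treated after 24 h with 2.5 µl of serially diluted compound and held 72 h at 37 °C, 5% CO2. Relative viability was taken as percent growth from ATPLite readings, averaged over up to triplicate wells. The values were rescaled so that 1 marks full and 0 marks none.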

HS729 = tested on: HS729
Outline: as §1

RD = tested on: RD
Outline: as §1

HT1080 = tested on: HT1080
Outline: as §1

SW684 = tested on: SW684
Outline: as §1

SW1353 = tested on: SW1353
Outline: as §1

KHOS-240S = tested on: KHOS-240S
Outline: as §1

SYO-1 = tested on: SYO-1
Outline: as §1

KHOS-NP = tested on: KHOS-NP
Outline: as §1

SW872 = tested on: SW872
Outline: as §1

SK-LMS-1 = tested on: SK-LMS-1
Outline: as §1

G401 = tested on: G401
Outline: as §1

C#Cc1cccc(Nc2ncnc3cc(OCCOC)c(OCCOC)cc23)c1 [Erlotinib]
Conditions	relative viability
G401, 0.00017 µM	1.04
G401, 0.00051 µM	1.05
G401, 0.00152 µM	1.02
G401, 0.00457 µM	1.04
G401, 0.01372 µM	1.01
G401, 0.04115 µM	1.03
G401, 0.1235 µM	1.018
G401, 0.3704 µM	1.05
G401, 1.111 µM	1.016
G401, 3.333 µM	0.9684
G401, 10 µM	0.787
HS729, 0.00017 µM	1.03
HS729, 0.00051 µM	0.978
HS729, 0.00152 µM	0.976
HS729, 0.00457 µM	0.961
HS729, 0.01372 µM	1.01
HS729, 0.04115 µM	1
HS729, 0.1235 µM	0.995
HS729, 0.3704 µM	1.01
HS729, 1.111 µM	0.92
HS729, 3.333 µM	0.781
HS729, 10 µM	0.714
HT1080, 0.00017 µM	1.09
HT1080, 0.00051 µM	1.1
HT1080, 0.00152 µM	1.09
HT1080, 0.00457 µM	1.08
HT1080, 0.01372 µM	1.09
HT1080, 0.04115 µM	1.12
HT1080, 0.1235 µM	1.11
HT1080, 0.3704 µM	1.097
HT1080, 1.111 µM	1.1
HT1080, 3.333 µM	1.16
HT1080, 10 µM	0.942
KHOS-240S, 0.00017 µM	1.06
KHOS-240S, 0.00051 µM	1.07
KHOS-240S, 0.00152 µM	1.05
KHOS-240S, 0.00457 µM	1.08
KHOS-240S, 0.01372 µM	1.06
KHOS-240S, 0.04115 µM	1.07
KHOS-240S, 0.1235 µM	1.087
KHOS-240S, 0.3704 µM	1.08
KHOS-240S, 1.111 µM	1.062
KHOS-240S, 3.333 µM	1.06
KHOS-240S, 10 µM	0.949
KHOS-NP, 0.00017 µM	1.11
KHOS-NP, 0.00051 µM	1.092
KHOS-NP, 0.00152 µM	1.11
KHOS-NP, 0.00457 µM	1.11
KHOS-NP, 0.01372 µM	1.11
KHOS-NP, 0.04115 µM	1.1
KHOS-NP, 0.1235 µM	1.095
KHOS-NP, 0.3704 µM	1.1
KHOS-NP, 1.111 µM	1.1
KHOS-NP, 3.333 µM	1.086
KHOS-NP, 10 µM	1.04
RD, 0.00017 µM	1.08
RD, 0.00051 µM	1.09
RD, 0.00152 µM	1.09
RD, 0.00457 µM	1.08
RD, 0.01372 µM	1.07
RD, 0.04115 µM	1.09
RD, 0.1235 µM	1.09
RD, 0.3704 µM	1.1
RD, 1.111 µM	1.12
RD, 3.333 µM	1.04
RD, 10 µM	0.786
RD-ES, 0.00017 µM	0.971
RD-ES, 0.00051 µM	0.974
RD-ES, 0.00152 µM	0.975
RD-ES, 0.00457 µM	0.992
RD-ES, 0.01372 µM	0.965
RD-ES, 0.04115 µM	0.967
RD-ES, 0.1235 µM	0.998
RD-ES, 0.3704 µM	0.994
RD-ES, 1.111 µM	0.987
RD-ES, 3.333 µM	0.936
RD-ES, 10 µM	0.691
SK-LMS-1, 0.00017 µM	1.06
SK-LMS-1, 0.00051 µM	1.06
SK-LMS-1, 0.00152 µM	1.09
SK-LMS-1, 0.00457 µM	1.07
SK-LMS-1, 0.01372 µM	1.09
SK-LMS-1, 0.04115 µM	1.12
SK-LMS-1, 0.1235 µM	1.07
SK-LMS-1, 0.3704 µM	1.11
SK-LMS-1, 1.111 µM	1.07
SK-LMS-1, 3.333 µM	0.941
SK-LMS-1, 10 µM	0.698
SW684, 0.00017 µM	1.16
SW684, 0.00051 µM	1.15
SW684, 0.00152 µM	1.14
SW684, 0.00457 µM	1.23
SW684, 0.01372 µM	1.23
SW684, 0.04115 µM	1.19
SW684, 0.1235 µM	1.17
SW684, 0.3704 µM	1.19
SW684, 1.111 µM	1.2
SW684, 3.333 µM	1.18
SW684, 10 µM	1.05
SW872, 0.00017 µM	1.11
SW872, 0.00051 µM	1.12
SW872, 0.00152 µM	1.14
SW872, 0.00457 µM	1.11
SW872, 0.01372 µM	1.07
SW872, 0.04115 µM	1.1
SW872, 0.1235 µM	1.11
SW872, 0.3704 µM	1.06
SW872, 1.111 µM	1.04
SW872, 3.333 µM	0.822
SW872, 10 µM	0.638
SW1353, 0.00017 µM	1.02
SW1353, 0.00051 µM	1.03
SW1353, 0.00152 µM	1.043
SW1353, 0.00457 µM	1.02
SW1353, 0.01372 µM	1.04
SW1353, 0.04115 µM	1.01
SW1353, 0.1235 µM	0.955
SW1353, 0.3704 µM	0.928
SW1353, 1.111 µM	0.889
SW1353, 3.333 µM	0.812
SW1353, 10 µM	0.695
SYO-1, 0.00017 µM	0.999
SYO-1, 0.00051 µM	0.998
SYO-1, 0.00152 µM	0.978
SYO-1, 0.00457 µM	0.979
SYO-1, 0.01372 µM	0.982
SYO-1, 0.04115 µM	0.9892
SYO-1, 0.1235 µM	0.967
SYO-1, 0.3704 µM	0.991
SYO-1, 1.111 µM	0.962
SYO-1, 3.333 µM	0.92
SYO-1, 10 µM	0.724
